Source: patent publication US20240270762A1, “PENICILLIN-BINDING PROTEIN INHIBITORS” (priority 2021, published 2024)
In brackets after ≈: the same amount, converted by molar mass.

Key:
[1] = test system: E. coli AG100A; experiment: Broth microdilution MIC in CAMHB; type: cell-based; details: Escherichia coli, read-out: MIC E. coli AG100A
[2] = test system: N. gonorrhoeae WHO X; experiment: Liquid broth MIC in Fastidious broth; details: Neisseria gonorrhoeae, read-out: Minimum Inhibitory Concentration (MIC), N. gonorrhoeae WHO X
[3] = test system: N. gonorrhoeae WHO Z; experiment: Liquid broth MIC in Fastidious broth; details: Neisseria gonorrhoeae, read-out: Minimum Inhibitory Concentration (MIC), N. gonorrhoeae WHO Z
[4] = test system: N. gonorrhoeae FA1090; experiment: Liquid broth MIC in Fastidious broth; details: Neisseria gonorrhoeae, FA1090, read-out: Minimum Inhibitory Concentration (MIC), N. gonorrhoeae FA 1090
[5] = test system: A. baumannii ATCC 19606; experiment: microbe, parasite or virus in culture; type: cell-based; details: Acinetobacter baumannii, ATCC19606, read-out: MIC, A. baumannii ATCC 19606
[6] = molecular target: T1, PBP3 from Pseudomonas aeruginosa (PAO1) (Pseudomonas aeruginosa, UniProt G3XD46); experiment: Bocillin-FL fluorescence polarization competition binding, P. aeruginosa PBP3; details: Binding affinity to P. aeruginosa PBP3; fluorescence polarization competition binding assay using Bocillin-FL; read-out: P. aeruginosa PBP3 Potency
T1 construct: made in house
Summary of the method: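 Purified PBP was preincubated with inhibitor (E. coli PBP3 1.5 μM, 30 min; P. aeruginosa PBP3 0.75 μM, A. baumannii PBP3 0.2 μM and PBP1a 1 μM, 15 min), then Bocillin-FL (0.1 μM; 0.05 μM for PBP1a) added and FP read up to 60 min. EC50 = 50% loss of bound probe.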

[7] = test system: K. pneumoniae 848844; experiment: microbe, parasite or virus in culture; type: cell-based; details: Klebsiella pneumoniae, 848844, read-out: MIC K. pneumoniae 848844
[8] = test system: K. pneumoniae SI-117; experiment: microbe, parasite or virus in culture; type: cell-based; details: Klebsiella pneumoniae, SI117, read-out: MIC K. pneumoniae SI-117
[9] = test system: N. gonorrhoeae WHO M; experiment: Liquid broth MIC in Fastidious broth; details: Neisseria gonorrhoeae, read-out: Minimum Inhibitory Concentration (MIC), N. gonorrhoeae WHO M
[10] = test system: N. gonorrhoeae WHO L; experiment: Liquid broth MIC in Fastidious broth; details: Neisseria gonorrhoeae, read-out: Minimum Inhibitory Concentration (MIC), N. gonorrhoeae WHO L
[11] = test system: P. aeruginosa (ΔmexAB-oprM); experiment: Broth microdilution MIC in CAMHB; type: cell-based; details: Pseudomonas aeruginosa; read-out: MIC P. aeruginosa ΔmexAB-oprM
[12] = test system: N. gonorrhoeae ATCC 49226; experiment: Liquid broth MIC in Fastidious broth; details: Neisseria gonorrhoeae, ATCC49226, read-out: Minimum Inhibitory Concentration (MIC), N. gonorrhoeae ATCC 49226
[13] = test system: E. coli 901C; experiment: microbe, parasite or virus in culture; type: cell-based; details: Escherichia coli, read-out: MIC E. coli 901C
[14] = test system: E. coli AG100; experiment: microbe, parasite or virus in culture; type: cell-based; details: Escherichia coli, AG100, read-out: MIC E. coli AG100
[15] = test system: P. aeruginosa ATCC 35151; experiment: microbe, parasite or virus in culture; type: cell-based; details: Pseudomonas aeruginosa, ATCC35151, read-out: MIC P. aeruginosa ATCC 35151
[16] = test system: N. gonorrhoeae WHO Q; experiment: Liquid broth MIC in Fastidious broth; details: Neisseria gonorrhoeae, read-out: Minimum Inhibitory Concentration (MIC), N. gonorrhoeae WHO Q

T1 sequence (G3XD46 whole entry): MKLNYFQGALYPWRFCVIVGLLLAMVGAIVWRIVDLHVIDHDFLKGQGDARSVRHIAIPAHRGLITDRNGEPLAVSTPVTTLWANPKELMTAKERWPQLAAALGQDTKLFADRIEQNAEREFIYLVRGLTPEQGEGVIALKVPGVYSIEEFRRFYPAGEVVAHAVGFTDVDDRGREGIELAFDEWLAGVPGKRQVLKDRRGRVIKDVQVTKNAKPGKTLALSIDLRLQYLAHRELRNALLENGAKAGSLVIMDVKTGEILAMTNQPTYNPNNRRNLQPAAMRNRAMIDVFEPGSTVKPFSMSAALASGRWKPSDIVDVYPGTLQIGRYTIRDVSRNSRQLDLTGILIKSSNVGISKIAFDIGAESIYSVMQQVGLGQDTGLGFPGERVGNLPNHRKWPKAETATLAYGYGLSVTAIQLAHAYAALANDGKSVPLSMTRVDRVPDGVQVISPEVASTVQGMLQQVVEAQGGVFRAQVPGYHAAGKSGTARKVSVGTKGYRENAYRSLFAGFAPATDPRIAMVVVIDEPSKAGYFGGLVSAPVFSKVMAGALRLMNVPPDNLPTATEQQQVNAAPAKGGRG

Structure (SMILES) | MIC [1] | MIC [2] | MIC [3] | MIC [4] | MIC [5] | IC50 [6] | MIC [7] | MIC [8] | MIC [9] | MIC [10] | MIC [11] | MIC [12] | MIC [13] | MIC [14] | MIC [15] | MIC [16]
Cn1cccc(C(=O)N[C@@H](C(=O)N[C@H]2Cc3cccc(C(=O)O)c3OB2O)c2ccc(P(=O)(O)O)cc2)c1=O (single isomer, unassigned) [Example 182] | 32 to 64 µg/mL (≈ 57.6 to 115 µM) | 16 to 32 µg/mL (≈ 28.8 to 57.6 µM) | 1 to 2 µg/mL (≈ 1.8 to 3.6 µM) | < 1 µg/mL | > 128 µg/mL | < 10 µM | > 128 µg/mL | > 128 µg/mL | < 1 µg/mL | 16 to 32 µg/mL (≈ 28.8 to 57.6 µM) | 8 to 16 µg/mL (≈ 14.4 to 28.8 µM) | 1 to 2 µg/mL (≈ 1.8 to 3.6 µM) | 2 to 4 µg/mL (≈ 3.6 to 7.2 µM) | > 128 µg/mL | < 1 µg/mL | 1 to 2 µg/mL (≈ 1.8 to 3.6 µM)
O=C(O)c1cccc2c1OB(O)[C@@H](NC(=O)[C@@H](NC(=O)c1cccn(C(F)F)c1=O)c1ccc(P(=O)(O)O)cc1)C2 (single isomer, unassigned) [Example 190] | > 128 µg/mL | 16 to 32 µg/mL (≈ 27.1 to 54.1 µM) | 4 to 8 µg/mL (≈ 6.77 to 13.5 µM) | < 1 µg/mL | > 128 µg/mL | < 10 µM | > 128 µg/mL | > 128 µg/mL | 1 to 2 µg/mL (≈ 1.69 to 3.38 µM) | 16 to 32 µg/mL (≈ 27.1 to 54.1 µM) | 32 to 64 µg/mL (≈ 54.1 to 108 µM) | 4 to 8 µg/mL (≈ 6.77 to 13.5 µM) | 2 to 4 µg/mL (≈ 3.38 to 6.77 µM) | > 128 µg/mL | 2 to 4 µg/mL (≈ 3.38 to 6.77 µM) | 4 to 8 µg/mL (≈ 6.77 to 13.5 µM)
O=C(O)c1cccc2c1OB(O)[C@@H](NC(=O)[C@H](NC(=O)c1cccn(C(F)F)c1=O)c1ccc(P(=O)(O)O)cc1)C2 (single isomer, unassigned) [Example 191] | 32 to 64 µg/mL (≈ 54.1 to 108 µM) | 16 to 32 µg/mL (≈ 27.1 to 54.1 µM) | 1 to 2 µg/mL (≈ 1.69 to 3.38 µM) | < 1 µg/mL | > 128 µg/mL | < 10 µM | > 128 µg/mL | > 128 µg/mL | < 1 µg/mL | 4 to 8 µg/mL (≈ 6.77 to 13.5 µM) | 8 to 16 µg/mL (≈ 13.5 to 27.1 µM) | 1 to 2 µg/mL (≈ 1.69 to 3.38 µM) | < 1 µg/mL | > 128 µg/mL | < 1 µg/mL | 1 to 2 µg/mL (≈ 1.69 to 3.38 µM)
O=C(N[C@H](C(=O)N[C@H]1Cc2cccc(C(=O)O)c2OB1O)c1ccc(P(=O)(O)O)cc1)c1ccc(C(F)(F)F)cn1 (single isomer, unassigned) [Example 192] | 32 to 64 µg/mL (≈ 53.9 to 108 µM) | 16 to 32 µg/mL (≈ 27 to 53.9 µM) | 1 to 2 µg/mL (≈ 1.69 to 3.37 µM) | < 1 µg/mL | > 128 µg/mL | < 10 µM | > 128 µg/mL | > 128 µg/mL | < 1 µg/mL | 4 to 8 µg/mL (≈ 6.74 to 13.5 µM) | 32 to 64 µg/mL (≈ 53.9 to 108 µM) | 1 to 2 µg/mL (≈ 1.69 to 3.37 µM) | < 1 µg/mL | > 128 µg/mL | 8 to 16 µg/mL (≈ 13.5 to 27 µM) | 1 to 2 µg/mL (≈ 1.69 to 3.37 µM)
O=C(N[C@@H](C(=O)N[C@H]1Cc2cccc(C(=O)O)c2OB1O)c1ccc(P(=O)(O)O)cc1)c1ccc(C(F)(F)F)cn1 (single isomer, unassigned) [Example 193] | 8 to 16 µg/mL (≈ 13.5 to 27 µM) | 4 to 8 µg/mL (≈ 6.74 to 13.5 µM) | < 1 µg/mL | < 1 µg/mL | > 128 µg/mL | < 10 µM | > 128 µg/mL | > 128 µg/mL | < 1 µg/mL | 4 to 8 µg/mL (≈ 6.74 to 13.5 µM) | 32 to 64 µg/mL (≈ 53.9 to 108 µM) | < 1 µg/mL | < 1 µg/mL | 32 to 64 µg/mL (≈ 53.9 to 108 µM) | 2 to 4 µg/mL (≈ 3.37 to 6.74 µM) | 1 to 2 µg/mL (≈ 1.69 to 3.37 µM)
O=C(O)c1cccc2c1OB(O)[C@@H](NC(=O)[C@@H](NC(=O)c1cnc3sccn3c1=O)c1ccc(P(=O)(O)O)cc1)C2 (single isomer, unassigned) [Example 194] | > 128 µg/mL | 16 to 32 µg/mL (≈ 26.7 to 53.5 µM) | 16 to 32 µg/mL (≈ 26.7 to 53.5 µM) | 1 to 2 µg/mL (≈ 1.67 to 3.34 µM) | > 128 µg/mL | < 10 µM | > 128 µg/mL | > 128 µg/mL | 4 to 8 µg/mL (≈ 6.69 to 13.4 µM) | 16 to 32 µg/mL (≈ 26.7 to 53.5 µM) | 32 to 64 µg/mL (≈ 53.5 to 107 µM) | 4 to 8 µg/mL (≈ 6.69 to 13.4 µM) | 2 to 4 µg/mL (≈ 3.34 to 6.69 µM) | > 128 µg/mL | 2 to 4 µg/mL (≈ 3.34 to 6.69 µM) | 16 to 32 µg/mL (≈ 26.7 to 53.5 µM)
O=C(O)c1cccc2c1OB(O)[C@@H](NC(=O)[C@H](NC(=O)c1cnc3sccn3c1=O)c1ccc(P(=O)(O)O)cc1)C2 (single isomer, unassigned) [Example 195] | > 128 µg/mL | 16 to 32 µg/mL (≈ 26.7 to 53.5 µM) | 4 to 8 µg/mL (≈ 6.69 to 13.4 µM) | < 1 µg/mL | > 128 µg/mL | < 10 µM | > 128 µg/mL | > 128 µg/mL | 1 to 2 µg/mL (≈ 1.67 to 3.34 µM) | 16 to 32 µg/mL (≈ 26.7 to 53.5 µM) | 8 to 16 µg/mL (≈ 13.4 to 26.7 µM) | 4 to 8 µg/mL (≈ 6.69 to 13.4 µM) | 2 to 4 µg/mL (≈ 3.34 to 6.69 µM) | > 128 µg/mL | < 1 µg/mL | 4 to 8 µg/mL (≈ 6.69 to 13.4 µM)
CS(=O)(=O)N1CCN(C(=O)NC(C(=O)N[C@H]2Cc3cccc(C(=O)O)c3OB2O)c2ccc(P(=O)(O)O)c(Cl)c2)C1=O (stereo partly drawn) [Example 11, (3R)-3-(2-(3-chloro-4-phosphonophenyl)-2-(3-(methylsulfonyl)-2-oxoimidazolidine-1-carboxamido)acetamido)-2-hydroxy-3,4-dihydro-2H-benzo[e][1,2]oxaborinine-8-carboxylic acid] | 8 to 16 µg/mL (≈ 12.4 to 24.8 µM) | 1 to 2 µg/mL (≈ 1.55 to 3.1 µM) | < 1 µg/mL | < 1 µg/mL | > 128 µg/mL | < 10 µM | > 128 µg/mL | > 128 µg/mL | < 1 µg/mL | 1 to 2 µg/mL (≈ 1.55 to 3.1 µM) | 32 to 64 µg/mL (≈ 49.6 to 99.3 µM) | < 1 µg/mL | < 1 µg/mL | 32 to 64 µg/mL (≈ 49.6 to 99.3 µM) | 8 to 16 µg/mL (≈ 12.4 to 24.8 µM) | < 1 µg/mL
CS(=O)(=O)N1CCN(C(=O)NC(C(=O)N[C@H]2Cc3cccc(C(=O)O)c3OB2O)c2ccc(P(=O)(O)O)c(F)c2)C1=O (stereo partly drawn) [Example 12, (3R)-3-(2-(3-fluoro-4-phosphonophenyl)-2-(3-(methylsulfonyl)-2-oxoimidazolidine-1-carboxamido)acetamido)-2-hydroxy-3,4-dihydro-2H-benzo[e][1,2]oxaborinine-8-carboxylic acid] | 8 to 16 µg/mL (≈ 12.7 to 25.5 µM) | < 1 µg/mL | < 1 µg/mL | < 1 µg/mL | 32 to 64 µg/mL (≈ 50.9 to 102 µM) | < 10 µM | > 128 µg/mL | > 128 µg/mL | < 1 µg/mL | < 1 µg/mL | 32 to 64 µg/mL (≈ 50.9 to 102 µM) | < 1 µg/mL | < 1 µg/mL | 8 to 16 µg/mL (≈ 12.7 to 25.5 µM) | 8 to 16 µg/mL (≈ 12.7 to 25.5 µM) | < 1 µg/mL
NC(C(=O)N[C@H]1Cc2ccc(F)c(C(=O)O)c2OB1O)c1ccc(P(=O)(O)O)cc1 (stereo partly drawn) [Example 14, (3R)-3-(2-amino-2-(4-phosphonophenyl)acetamido)-7-fluoro-2-hydroxy-3,4-dihydro-2H-benzo[e][1,2]oxaborinine-8-carboxylic acid] | > 128 µg/mL | > 64 µg/mL | > 64 µg/mL | > 64 µg/mL | > 128 µg/mL | > 250 µM | > 128 µg/mL | > 128 µg/mL | > 64 µg/mL | > 64 µg/mL | > 128 µg/mL | > 64 µg/mL | > 128 µg/mL | > 128 µg/mL | > 128 µg/mL | > 64 µg/mL
CS(=O)(=O)N1CCN(C(=O)N[C@@H](C(=O)N[C@H]2Cc3ccc(F)c(C(=O)O)c3OB2O)c2ccc(P(=O)(O)O)c(F)c2F)C1=O [Example 16, (R)-3-((R)-2-(2,3-difluoro-4-phosphonophenyl)-2-(3-(methylsulfonyl)-2-oxoimidazolidine-1-carboxamido)acetamido)-7-fluoro-2-hydroxy-3,4-dihydro-2H-benzo[e][1,2]oxaborinine-8-carboxylic acid] | 32 to 64 µg/mL (≈ 48.2 to 96.3 µM) | < 1 µg/mL | < 1 µg/mL | < 1 µg/mL | > 128 µg/mL | < 10 µM | > 128 µg/mL | > 128 µg/mL | < 1 µg/mL | < 1 µg/mL | > 128 µg/mL | < 1 µg/mL | < 1 µg/mL | > 128 µg/mL | 2 to 4 µg/mL (≈ 3.01 to 6.02 µM) | < 1 µg/mL
